In US20110009446A1, “OLIGOMER-GUANIDINE CLASS CONJUGATES” (Nektar Therapeutics, priority 2008, published 2011):
Structures can show the parent of a compound that is named as a salt.

Key:
[1] = biological target: T1, noradrenalin transporters (Rattus norvegicus, UniProt Q9WTR4); test: Radioligand binding assay ([3H]-nisoxetine competition) in rat forebrain membranes; settings: 1.0 nM [3H]-nisoxetine, 0-4° C., 4 hours, Cheng Prusoff correction
T1 construct: membranes prepared from rat forebrain which express noradrenalin transporters; from tissue; host or cells: rat forebrain membranes
Procedure: Competition binding experiments are conducted by incubating membranes with 1.0 nM of radioligand, [^3H]-nisoxetine, in the presence of variable concentrations (0.1 nM to 3 μM and 1 nM to 30 μM for parent and PEG conjugates, respectively) of test compounds. The reaction is carried out in 50 mM Tris-HCl (pH 7.4), containing 300 mM NaCl and 5 mM KCl at 0-4° C. for 4 hours. Following incubations, the membranes are washed, and the bound radioactivity is measured. Non-specific binding is measured in the presence of excess desipramine (1.0 μM) as the cold ligand; this value is subtracted from the total binding to yield the specific binding at each test compound concentration.
Ki is obtained using the Cheng Prusoff correction using experimental Kd values that are previously determined under these assay conditions.

[2] = system: visceral pain in mice (CD-1 male mice); test: Analgesic assay (acetic acid-induced writhing); type: in vivo
Procedure: An analgesic assay was used to determine whether a given compound can reduce and/or prevent visceral pain in mice. The assay utilized CD-1 male mice (5-8 mice per group), each mouse being approximately 0.015-0.030 kg on the study day. Mice were treated according to standard protocols. Mice were given a single “pretreatment” dose of a compound lacking covalent attachment of a water-soluble, non-peptidic oligomer, a corresponding version comprising the compound covalently attached to a water-soluble, non-peptidic oligomer, or control solution (IV, SC, IP or orally) thirty minutes prior to the administration of the acetic acid solution. The animal was given an IP injection of an irritant (acetic acid) that induces “writhing” which may include: contractions of the abdomen, twisting and turning of the trunk, arching of the back and the extension of the hindlimbs. Mice were given a single IP injection (0.1 mL/10 g bodyweight) of a 0.5% acetic acid solution. After the injection the animals were returned to their observation enclosure and their behavior was observed. Contractions were counted between 0 and 20 minutes after the injection. The animals were used once. Each tested article was dosed at 1, 3 and 10 mg/kg (n=5 animals/dose).

[3] = 10 mg/kg, 5 animals, acetic acid writhing

T1 sequence (Q9WTR4 1-597): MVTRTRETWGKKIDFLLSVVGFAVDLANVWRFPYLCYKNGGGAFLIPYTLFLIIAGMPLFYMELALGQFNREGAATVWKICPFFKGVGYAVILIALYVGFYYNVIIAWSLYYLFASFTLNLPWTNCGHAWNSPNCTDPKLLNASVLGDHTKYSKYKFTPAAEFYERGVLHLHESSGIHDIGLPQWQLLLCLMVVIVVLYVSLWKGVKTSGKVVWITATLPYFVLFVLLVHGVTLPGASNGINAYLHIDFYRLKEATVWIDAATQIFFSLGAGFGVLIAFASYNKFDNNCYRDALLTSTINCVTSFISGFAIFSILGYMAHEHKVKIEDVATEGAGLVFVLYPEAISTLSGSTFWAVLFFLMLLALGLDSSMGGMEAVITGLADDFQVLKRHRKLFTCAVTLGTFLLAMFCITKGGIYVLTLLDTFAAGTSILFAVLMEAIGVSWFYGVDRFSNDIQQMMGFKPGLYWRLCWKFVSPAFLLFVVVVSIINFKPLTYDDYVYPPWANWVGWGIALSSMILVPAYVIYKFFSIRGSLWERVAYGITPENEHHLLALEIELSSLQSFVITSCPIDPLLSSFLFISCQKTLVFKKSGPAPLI

SMILES | Ki [1] [nM] | Mean (contractions/writhing counted) ([2]; 10 mg/kg single pretreatment dose 30 min before IP 0.5% acetic acid, contractions counted 0-20 min, CD-1 male mice) | No. of Responders [2, 3] | Responding Fraction [2, 3] | % Reduction in writhing ([2]; 10 mg/kg, CD-1 male mice, acetic acid writhing) [%]
N=C(N)N1CCc2ccccc2C1 [Debrisoquine sulfate, debrisoquine sulfate] | 594 |  |  |  | 
N=C(N)N1CCc2ccccc2C1 [Debrisoquine] |  | 49.6 | 0 | 0.00 | 10.6
